Values after ≈ are worked out from the molar mass of the structure shown. Where a SMILES comes first, the peptide text is derived from it.
Assay: solubility in water at room temperature
Format: physicochemical
From the text: The two pairs DD/LL-methionylmethionine and DL/LD-methionylmethionine are diastereomeric relative to one another and have different physical data. […] These mixtures can be incorporated/dissolved simply in an aqueous phase or an aqueous surfactant phase of a cosmetic composition.

CSCC[C@H](NC(=O)[C@@H](N)CCSC)C(=O)O [DL/LD-methionylmethionine, methionylmethionine] (H-Met-Met-OH)
solubility at room temperature in water: 0.4 mg/mL (≈ 1.43 mM)

CSCC[C@H](NC(=O)[C@@H](N)CCSC)C(=O)O [DD/LL-methionylmethionine, methionylmethionine] (H-Met-Met-OH)
solubility at room temperature in water: 21.0 mg/mL (≈ 74.9 mM)
